Measurements from patent publication US20240246960A1 (adMare Therapeutics Society, priority 2021, published 2024).

How the values were obtained:
FaDu tumour xenograft [1] = test: In vivo clonogenic survival (CS-ER), FaDu tumour xenografts ± radiation; conditions: Rag2M mice
Procedure: FaDu tumour xenograft-bearing Rag2M mice were treated with single administrations of test compounds at indicated doses±radiation as indicated, at time 0.
Mice were irradiated at 1 h post compound administration (unless otherwise indicated), with 300 KV X-rays and a 10 mA current from a Precision XRAD 300 machine (USA) with a beam-hardening filter (2 mm Al+0.25 mm Cu+0.75 mm Sn) and an adjustable site to specimen distance (SSD) at a dose of 8-10 Gy, delivered at a rate of ˜1.05 Gy/min.
Mice were terminated at times after irradiation as indicated, and tumour tissues excised. A portion of tumour approximately 300-500 mg was briefly minced using sterile scissors and placed in a pre-weighed gentleMACS C tube (Miltenyi Biotec cat #130-093-237) and weighed with combined tumour+tube mass recorded. A 5 mL aliquot of enzyme cocktail comprising of trypsin/DNase/collagenase/EDTA-Na2 in PBS (1 mg/ml trypsin+0.26 mg/ml DNase+0.21 mg/ml collagenase+2 mM EDTA-Na2) was added to the tube, which is then run on the gentleMACS Dissociator disaggregation system. Tubes were then incubated at 37° C. and continually rotated for 20 min before again running on the gentleMACS Dissociator program. Samples were then diluted with 5 ml MEM medium containing 5% FBS and filtered (Falcon cell strainer 100 μm, cat #352360). After centrifugation (1100 rpm for 6 minutes at 4° C.) supernatant was aspirated and the cells resuspended in 4 ml cold growth medium (MEM+10% FBS)+50 ul DNase (5 mg/ml DNase solution). Cell numbers were counted from the same cell solution using a hemacytometer. Appropriate dilutions (control: 10,000 cells/ml; 8Gy: 400,000 cells/ml; drug+radiation treated; 500,000 cells/ml) were made and cells then plated in triplicate: control: 100 μl and 300 μl (1000 and 3000 cells/6 cm tissue culture plate); 8Gy: 30 μl, 105 μl and 350 μl (12000, 42000 cells/6 cm plates and 140000 cells/10 cm plate); drug+8Gy: 70 μl, 300 μl, 1.2 ml (35000 and 150000 cells/6 cm plates and 600000 cells/10 cm plates—only duplicate). Plates were incubated at 37° C. (in a 5% CO2, 5% O2 and balance N2 environment) for 14 days. For a final and accurate automated live-cell counting a solution of Hoechst33342 (0.01 mg/ml)+Propidium Iodide (0.004 mg/ml) in 0.9% saline was mixed with an appropriate cell number dilution of the samples in 96 well plates (50 ul staining solution+50 ul cell suspension of 10000 cells/ml) and images are taken of the wells and cell numbers are calculated by a computer program.
After 14 days plates were removed from the incubator, rinsed with PBS and stained with cold 2 g/L Malachite green oxalate salt solution (Sigma-Aldrich, cat #M6880) for 30 minutes at room temperature. Plates were rinsed with distilled water and dried. Pictures were obtained of the plates and colonies consisting of 50 or more cells were counted using a Stuart Scientific colony counter.
All plates with colonies were analyzed except when colony numbers were so high that the edges of individual colonies could not be determined accurately. Plating efficiency (PE) of each tumour sample was calculated first: PE is a ratio of the number of colonies to the number of cells seeded (sum of all the colonies countable in all the plates of the same sample divided by the sum of cells plated in the same plates). The PE of control tumours was averaged for the calculation of surviving fraction (SF): SF is based on the number of colonies formed in drug and/or radiation treated cells relative to that of untreated control (PE of treated tumor sample divided by PE of control). All treated data points were compared separately to the average of the controls. Finally, a Clonogenic Survival Enhancement Ratio (CS-ER) was calculated: the SF of irradiated control groups were divided by the SF of treatment groups to determine treatment group-specific CS-ER values, and these were assigned scores based on defined response ranges: values >6=A, 4-6=B, <4=C.

FaDu tumour xenograft [2] = test: In vivo tumour growth delay (TGD-ER), FaDu tumour xenografts + radiation; conditions: PO
Procedure: FaDu tumour xenograft-bearing animals were monitored for tumour growth and once average tumour size reached approximately 100-250 mm3, animals were assigned to treatment cohorts using stratified randomization. Animals were weighted and treated with doses of test compounds at 10, 30 or 100 mg/kg PO from 1, 3 or 10 mg/mL formulations at time 0.
For BID dosing regimens, at 8 h following the first injection, animals were again administered with test compound at the same dose as their previous administration. Animals were weighed and had tumours measured using calipers three times weekly until the endpoint of maximum tumour volume, 1000 mm3, was reached and animals were euthanized. Tumour volumes were calculated according to the equation L×W^2/2 with the length (mm) being the longer axis of the tumour; in the case that no tumour was palpable, tumour volumes were recorded as 0 mm^3.
Data were calculated as tumour growth normalized to day 0 measurements, with time to tumour doubling determined. Average time to tumour doubling for each group was used to determine a Tumour Growth Delay Enhancement Ratio (TGD-ER): the time to doubling for treatment groups were divided by the time to doubling for irradiation-alone groups to determine group-specific TGD-ER values, and these were assigned scores based on defined response ranges: values >2.5=A, 1-2.5=B, <1=C.

## O=C(N[C@H]1CC[C@@H](Oc2nc(N3CCOCC3)cc3ncccc23)CC1)c1ccncc1 [Compound 113, N-((1s,4s)-4-((7-morpholino-1,6-naphthyridin-5-yl)oxy)cyclohexyl)isonicotinamide]
FaDu tumour xenograft [1]; 30 mpk + 8 Gy, 2 h
  CS-ER Range Score: C (<4=C)
FaDu tumour xenograft [1]; 30 mpk + 8 Gy, 4 h
  CS-ER Range Score: B (4-6=B)

## O=C(N[C@H]1CC[C@@H](Oc2nc(N3CCOCC3)cc3ncccc23)CC1)c1ccnnc1 [Compound 121, N-((1s,4s)-4-((7-morpholino-1,6-naphthyridin-5-yl)oxy)cyclohexyl)pyridazine-4-carboxamide]
FaDu tumour xenograft [1]; 30 mpk + 8 Gy, 4 h
  CS-ER Range Score: C (<4=C)

## O=C(N[C@H]1CC[C@@H](Oc2nc(N3CCOCC3)cc3ncccc23)CC1)c1ncccn1 [Compound 123, N-((1s,4s)-4-((7-Morpholino-1,6-naphthyridin-5-yl)oxy)cyclohexyl)pyrimidine-2-carboxamide]
FaDu tumour xenograft [1]; 100 mpk + 10 Gy, 0.5 h
  CS-ER Range Score: C (<4=C)
FaDu tumour xenograft [1]; 100 mpk + 10 Gy, 4 h
  CS-ER Range Score: A (values >6=A)
FaDu tumour xenograft [1]; 100 mpk + 10 Gy, 8 h
  CS-ER Range Score: A (values >6=A)
FaDu tumour xenograft [1]; 100 mpk + 10 Gy, 24 h
  CS-ER Range Score: A (values >6=A)
FaDu tumour xenograft [2]; 10 mpk + 10 Gy
  TGD-ER Range Score: B (1-2.5=B)
FaDu tumour xenograft [2]; 30 mpk + 10 Gy
  TGD-ER Range Score: B (1-2.5=B)
FaDu tumour xenograft [2]; 100 mpk + 10 Gy
  TGD-ER Range Score: A (values >2.5=A)
FaDu tumour xenograft [2]; (30 mpk + 2 Gy) Q5D
  TGD-ER Range Score: A (values >2.5=A)
FaDu tumour xenograft [2]; (30 mpk) Q5D
  TGD-ER Range Score: C (<1=C)

## O=C(N[C@H]1CC[C@@H](Oc2nc(N3CCOCC3)cc3ncccc23)CC1)c1cc[nH]c1 [Compound 140, N-((1s,4s)-4-((7-morpholino-1,6-naphthyridin-5-yl)oxy)cyclohexyl)-1H-pyrrole-3-carboxamide]
FaDu tumour xenograft [1]; 30 mpk + 8 Gy, 4 h
  CS-ER Range Score: B (4-6=B)
FaDu tumour xenograft [2]; 30 mpk BID + 10 Gy
  TGD-ER Range Score: C (<1=C)

## O=C(N[C@H]1CC[C@@H](Oc2nc(N3CCOCC3)cc3ncccc23)CC1)c1ncco1 [Compound 142, N-((1s,4s)-4-((7-morpholino-1,6-naphthyridin-5-yl)oxy)cyclohexyl)oxazole-2-carboxamide]
FaDu tumour xenograft [1]; 30 mpk + 8 Gy, 2 h
  CS-ER Range Score: B (4-6=B)
FaDu tumour xenograft [1]; 30 mpk + 8 Gy, 4 h
  CS-ER Range Score: B (4-6=B)

## O=C(N[C@H]1CC[C@@H](Oc2nc(N3CCOCC3)cc3ncccc23)CC1)c1c[nH]cn1 [Compound 144, N-((1s,4s)-4-((7-morpholino-1,6-naphthyridin-5-yl)oxy)cyclohexyl)-1H-imidazole-4-carboxamide]
FaDu tumour xenograft [1]; 30 mpk + 8 Gy, 2 h
  CS-ER Range Score: C (<4=C)
FaDu tumour xenograft [1]; 30 mpk + 8 Gy, 4 h
  CS-ER Range Score: B (4-6=B)

## CS(=O)(=O)Nc1cnc2cc(N3CCOCC3)nc(O[C@H]3CC[C@@H](Nc4ncccn4)CC3)c2c1 [Compound 185, N-(7-morpholino-5-(((1s,4s)-4-(pyrimidin-2-ylamino)cyclohexyl)oxy)-1,6-naphthyridin-3-yl)methanesulfonamide]
FaDu tumour xenograft [1]; 30 mpk + 8 Gy, 4 h
  CS-ER Range Score: B (4-6=B)
FaDu tumour xenograft [2]; 10 mpk BID + 5 Gy
  TGD-ER Range Score: B (1-2.5=B)
FaDu tumour xenograft [2]; 30 mpk BID + 5 Gy
  TGD-ER Range Score: B (1-2.5=B)
FaDu tumour xenograft [2]; 100 mpk BID + 5 Gy
  TGD-ER Range Score: B (1-2.5=B)

## COc1cnc(N[C@H]2CC[C@@H](Oc3nc(N4CCOCC4)cc4ncc(NS(C)(=O)=O)cc34)CC2)nc1 [Compound 203, N-(5-(((1s,4s)-4-((5-methoxypyrimidin-2-yl)amino)cyclohexyl)oxy)-7-morpholino-1,6-naphthyridin-3-yl)methanesulfonamide]
FaDu tumour xenograft [1]; 30 mpk + 8 Gy, 2 h
  CS-ER Range Score: B (4-6=B)
FaDu tumour xenograft [1]; 30 mpk + 8 Gy, 4 h
  CS-ER Range Score: B (4-6=B)
